Test results as given in ChEMBL document CHEMBL1134487, “Design, synthesis, and biological evaluation of analogues of the antitumor agent, 2-(4-[(7-chloro-2-quinoxalinyl)oxy]phenoxy)propionic acid (XK469)” (2001).
Activity calls are given as the source filed them. The rule behind the calls is not given here.

How the values were obtained:
Mus musculus [1] = experiment: In vivo activity against iv transplanted AML Leukemia 1498 tumors of mice; Not active; type: functional, organism-based
Mus musculus [2] = experiment: In vivo activity against transplanted Panc-02 tumors of mice; Not active; type: functional, organism-based
Mus musculus [3] = experiment: In vivo activity against iv transplanted Leukemia L1210 tumors of mice; type: functional, organism-based
Mus musculus [4] = experiment: In vivo activity against transplanted colon-51 tumors of mice; Not active; type: functional, organism-based
Mus musculus [5] = experiment: In vivo activity against transplanted Squam lung-LC12 tumors of mice; type: functional, organism-based
Mus musculus [6] = experiment: In vivo activity against transplanted colon-38 tumors of mice; type: functional, organism-based
Mus musculus [7] = experiment: In vivo activity against transplanted Mam-16/C/Adr tumors of mice; Not active; type: functional, organism-based
Mus musculus [8] = experiment: In vivo activity against transplanted Mam-17/Adr tumors of mice; Not active; type: functional, organism-based
Mus musculus [9] = experiment: In vivo activity against transplanted Mam-17 tumors of mice; Not active; type: functional, organism-based
Mus musculus [10] = experiment: In vivo activity against transplanted Mam-16/C tumors of mice; type: functional, organism-based
Mus musculus [11] = experiment: In vivo activity against transplanted Mel-B16 tumors of mice; Not active; type: functional, organism-based
Mus musculus [12] = experiment: In vivo activity against transplanted Mam-16/C/ Taxol tumors of mice; Not active; type: functional, organism-based
Mus musculus [13] = experiment: In vivo activity against transplanted colon-26 tumors of mice; type: functional, organism-based
Mus musculus [14] = experiment: In vivo activity against transplanted Panc-03 tumors of mice; Not active; type: functional, organism-based
Mus musculus [15] = experiment: In vivo activity against transplanted Mel-B16 tumors of mice; type: functional, organism-based
Mus musculus [16] = experiment: In vivo activity against transplanted Panc-03 tumors of mice; type: functional, organism-based
Mus musculus [17] = experiment: In vivo activity against transplanted colon-51 tumors of mice; type: functional, organism-based
Mus musculus [18] = experiment: In vivo activity against transplanted Panc-02 tumors of mice; type: functional, organism-based
Mus musculus [19] = experiment: In vivo activity against transplanted colon-26 tumors of mice; Not active; type: functional, organism-based
Mus musculus [20] = experiment: In vivo activity against iv transplanted Leukemia L1210 tumors of mice; Not active; type: functional, organism-based
Mus musculus [21] = experiment: In vivo activity against transplanted Mam-17 tumors of mice; type: functional, organism-based
Mus musculus [22] = experiment: In vivo activity against iv transplanted AML Leukemia 1498 tumors of mice; type: functional, organism-based
Mus musculus [23] = experiment: In vivo activity against transplanted Mam-16/C/Adr tumors of mice; type: functional, organism-based
Mus musculus [24] = experiment: In vivo activity against transplanted Mam-16/C/ Taxol tumors of mice; type: functional, organism-based
Mus musculus [25] = experiment: In vivo activity against transplanted Mam-17/Adr tumors of mice; type: functional, organism-based
Mus musculus [26] = experiment: In vivo activity tested against C3H mice bearing panc-03 murine tumor measured as % treated/control calculated at 800 mg/kg (po); type: functional
Mus musculus [27] = experiment: In vivo activity tested against C3H mice bearing panc-03 murine tumor measured as log Kill value was based on tumors that grew at 800 mg/kg (po); type: functional, organism-based; set-up: dose 800 mg/kg
Mus musculus [28] = experiment: In vivo activity tested against C3H mice bearing panc-03 murine tumor measured as body weight loss at 800 mg/kg (po); type: functional
Mus musculus [29] = species on record: Mus musculus; experiment: […] activity against C3H mice bearing panc-03 murine tumor; Inactive; type: functional, organism-based
Mus musculus [30] = experiment: In vivo activity against transplanted Mam-16/C/Taxol tumors of mice; type: functional, organism-based
Mus musculus [31] = experiment: In vivo antitumor activity against tumor […]; Inactive; type: functional, organism-based
Mus musculus [32] = experiment: In vivo activity tested against C3H mice bearing mammary adenocarcinoma -17/ADR tumor measured as log Kill value was based on tumors that grew at 301 mg/kg (po); type: functional, organism-based; set-up: dose 301 mg/kg
Mus musculus [33] = experiment: In vivo activity tested against C3H mice bearing mammary adenocarcinoma -17/ADR tumor measured as body weight loss at 301 mg/kg (po); type: functional
Mus musculus [34] = experiment: In vivo activity tested against C3H mice bearing mammary adenocarcinoma -17/ADR tumor measured as activity rating at 301 mg/kg (po); type: functional
Mus musculus [35] = experiment: In vivo activity tested against C3H mice bearing mammary adenocarcinoma -17/ADR tumor measured as % treated/control calculated at 301 mg/kg (po); type: functional

| SMILES | Log kill (Mus musculus [3]) | Log kill (Mus musculus [5]) | Log kill (Mus musculus [6]) | Log kill (Mus musculus [10]) | NA (Mus musculus [12]) | Log kill (Mus musculus [13]) | Log kill (Mus musculus [15]) | Log kill (Mus musculus [16]) | Log kill (Mus musculus [17]) | Log kill (Mus musculus [18]) | Log kill (Mus musculus [21]) | Log kill (Mus musculus [22]) | Log kill (Mus musculus [23]) | Log kill (Mus musculus [25]) | further results |
| --- | --- | --- | --- | --- | --- | --- | --- | --- | --- | --- | --- | --- | --- | --- | --- |
| Nc1ccn([C@@H]2O[C@H](CO)[C@@H](O)C2(F)F)c(=O)n1 | > 5 | < 0.7 | 2.8 | > 2.8 | inactive | 2.8 | – | – | – | – | – | – | – | – | NA (Mus musculus [1]): inactive; NA (Mus musculus [2]): inactive; NA (Mus musculus [4]): inactive; NA (Mus musculus [7]): inactive; NA (Mus musculus [8]): inactive; NA (Mus musculus [9]): inactive; NA (Mus musculus [11]): inactive; NA (Mus musculus [14]): inactive |
| CC[C@@]1(O)C(=O)OCc2c1cc1n(c2=O)Cc2cc3ccccc3nc2-1 | – | < 0.7 | 1.2 | 2.8 | inactive | – | 1.2 | > 2.8 | 1.2 | < 0.7 | – | – | – | – | NA (Mus musculus [1]): inactive; NA (Mus musculus [7]): inactive; NA (Mus musculus [8]): inactive; NA (Mus musculus [9]): inactive; NA (Mus musculus [19]): inactive; NA (Mus musculus [20]): inactive |
| CC(=O)O[C@H]1C(=O)[C@@]2(C)[C@H]([C@H](OC(=O)c3ccccc3)[C@]3(O)C[C@H](OC(=O)[C@H](O)[C@@H](NC(=O)c4ccccc4)c4ccccc4)C(C)=C1C3(C)C)[C@]1(OC(C)=O)CO[C@@H]1C[C@@H]2O | < 1 | < 0.7 | > 2.8 | > 2.8 | – | 0.7 | 0.7 | > 2.8 | 1.2 | < 0.7 | > 2.8 | < 0.7 | < 0.7 | < 0.7 | Log kill (Mus musculus [24]): < 0.7 |
| Nc1ccn([C@@H]2O[C@H](CO)[C@@H](O)[C@@H]2O)c(=O)n1 | > 5 | < 0.7 | 1.9 | 1.9 | inactive | < 0.7 | < 0.7 | < 0.7 | < 0.7 | < 0.7 | 1.9 | > 2.8 | – | 2.8 | NA (Mus musculus [7]): inactive |
| O=c1[nH]cc(F)c(=O)[nH]1 | 4.9 | < 0.7 | 2.8 | 2.8 | inactive | 1.9 | 1.9 | 1.2 | < 0.7 | < 0.7 | 1.2 | 1.2 | 2.8 | < 0.7 | – |
| CC(Oc1ccc(Oc2cnc3ccc(Cl)cc3n2)cc1)C(=O)NN (stereo not drawn) | – | – | – | – | – | – | – | – | – | – | – | – | – | – | T/C (Mus musculus [26]): 27%; Log kill (Mus musculus [27]): 0.75; Body weight loss (Mus musculus [28]): -6.5% |
| CC(C#N)Oc1ccc(Oc2cnc3ccc(Cl)cc3n2)cc1 (stereo not drawn) | – | – | – | – | – | – | – | – | – | – | – | – | – | – | NA (Mus musculus [29]): inactive |
| COc1cccc2c1C(=O)c1c(O)c3c(c(O)c1C2=O)C[C@@](O)(C(=O)CO)C[C@@H]3O[C@H]1C[C@H](N)[C@H](O)[C@H](C)O1 | 1.9 | > 2.8 | 1.9 | > 2.8 | – | 0.7 | 0.7 | 2.8 | 0.7 | < 0.7 | > 2.8 | > 2.8 | 0.7 | < 0.7 | Log kill (Mus musculus [30]): 2.8 |
| CC(Oc1ccc(Nc2cnc3ccc(Cl)cc3n2)cc1)C(=O)O (stereo not drawn) | – | – | – | – | – | – | – | – | – | – | – | – | – | – | NA (Mus musculus [31]): inactive |
| C[C@H](Oc1ccc(Oc2cnc3ccc(Cl)cc3n2)cc1)C(=O)O | – | – | – | – | – | – | – | – | – | – | – | – | – | – | Log kill (Mus musculus [32]): 2.7; Body weight loss (Mus musculus [33]): -3%; Activity rating (Mus musculus [34]): >2.8; T/C (Mus musculus [35]): 0% |
| O=P1(N(CCCl)CCCl)NCCCO1 (stereo not drawn) | 4.9 | > 2.8 | 0.7 | 2.8 | inactive | 1.9 | 1.9 | 1.9 | 1.9 | < 0.7 | 2.8 | > 2.8 | > 2.8 | 2.8 | – |
| CC(Oc1ccc(-c2ccc(Oc3cnc4ccc(Cl)cc4n3)cc2)cc1)C(=O)O (stereo not drawn) | – | – | – | – | – | – | – | – | – | – | – | – | – | – | NA (Mus musculus [31]): inactive |
